Results on 46 compounds are retold here after patent US20100324017A1, “ACYLGUANIDINE DERIVATIVE” (priority 2007, published 2010).

The structures appear in SMILES notation. Where a name gives a salt, the structure may show the parent alone.

Broadly, the Ki is the equilibrium dissociation constant of an inhibitor or competing ligand from its target. Low readings indicate higher affinity, high ones lower affinity.

For one assay, the target named is T1, human 5-HT5A receptor (Homo sapiens, UniProt P47898).
T1 construct: expressed in transfected cells; membrane preparation
T1 sequence (P47898 whole entry): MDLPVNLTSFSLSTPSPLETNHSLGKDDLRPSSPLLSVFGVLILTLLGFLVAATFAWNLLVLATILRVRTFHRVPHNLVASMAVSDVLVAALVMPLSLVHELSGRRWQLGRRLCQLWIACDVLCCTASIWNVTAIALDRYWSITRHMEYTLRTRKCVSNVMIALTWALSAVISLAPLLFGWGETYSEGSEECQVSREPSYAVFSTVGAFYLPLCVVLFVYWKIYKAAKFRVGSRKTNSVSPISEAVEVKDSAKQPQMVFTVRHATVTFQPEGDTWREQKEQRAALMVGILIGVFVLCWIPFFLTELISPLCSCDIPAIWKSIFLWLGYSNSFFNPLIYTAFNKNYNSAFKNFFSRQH
The experiment in a line: Test of human 5-HT5A receptor binding inhibition ([3H]5-CT, HEK293 cell membrane). To be noted: [3H]5-CT binding, membrane of HEK293 cell expressing human 5-HT5A receptor. The procedure: An ORF of a human 5-HT5A receptor (Genbank AF498985) was cloned from a human hippocampal cDNA library, and then inserted into a pCR2.1 vector (Invitrogen), and Escherichia coli having the plasmid was mass cultured. Next, the human 5-HT5A receptor full-length cDNA sequence was analyzed, recombined into a pCDNA3.1 vector (Invitrogen) as an expression vector, and mass cultured. A human embryonic kidney-induced cell HEK293 cell (ATCC) was seeded, and the resulting expression plasmid (1 μg) above was added thereto together with LIPOFECTAMINE 2000 (Invitrogen; 2 μl), a gene was introduced into the HEK293 cell, and then Geneticin (G418 sulfate 500 μg/ml; Kanto Chemical Co., Inc.) was used as a drug-resistant marker to screen the expressing cell. Thus prepared gene-expressing recombinant cell was cultured in a D-MEM, 10% FCS, 1% Pc./Sm., 500 μg/ml G418 culture medium for 3 days. This experimental operation was conducted in accordance with a gene operation experiment manual of a known method (Sambrook, J. et al, Molecular Cloning-A Laboratory Manual“, Cold Spring Harabor Laboratory, NY, 1989), etc., an instruction appended in a reagent or the like.
(1) Preparation of a Membrane from an HEK293 Cell Forcibly Expressing a Human 5-HT5A Receptor
An HEK293 cell forcibly expressing a human 5-HT5A receptor was cultured in an F500 plate, and scraped for collection using a scraper. After centrifugation, the precipitates were collected and an incubation buffer (50 mM Tris (HCl) PH 7.4, 10 mM Mg504, 0.5 mM EDTA) was added thereto. After homogenization, it was further centrifuged, an incubation buffer was added to the precipitate, and the mixture was well suspended. These operations were repeatedly conducted, the protein concentration was then measured, and the preparation of a membrane was completed.
(2) Experiment on Human 5-HT5A Receptor Binding Inhibition
The compound to be tested (0.3 to 300 nM) and a 100 μM 5-CT solution in DMSO were added to a 96-well plate at 2 μl/well. The number of the wells to be measured under the same condition in one experiment was set at 2, and an average value thereof was used. It was suspended in an incubation buffer, and a HEK293 cell membrane forcibly expressing a human 5-HT5A receptor that had been prepared at 200 μg/ml was added thereto at 100 μl/well. The mixture was incubated at room temperature for 15 minutes, and a [^3H]5-CT solution (2 nM [^3H]5-CT, an incubation buffer) was then added thereto at 100 μl/well.
Separate from this, 100 μl of the solution was dispersed to a liquid scintillation vial, 2 ml of Aquasol II (registered trademark) was added thereto, followed by stirring, and the radioactivity was then measured with a liquid scintillation counter. The solution was incubated at 37° C. for 60 minutes. The reaction liquid was sucked to a 96-well GF/C filter plate that had been preliminarily treated with 0.2% polyethyleneimine, and washed six times with an ice-cooled 50 mM Tris (pH 7.5) buffer. The GF/C filter plate was dried.
MicroscintTMPS (registered trademark) was added thereto at 40 μl/well. The radioactivity remaining on the GF/C filter plate was measured in a top counter.
For the inhibitory activity for the binding of the [^3H]5-CT by the compound to be tested in each experiment, IC50 value was calculated by taking the radioactivity when only DMSO was added as 0% inhibition, and the radioactivity when 1 μM 5-CT was added as 100% inhibition. Apart from this, a Ki value was calculated from the Kd value of the [^3H]5-CT that had been determined by Scatchard analysis.
Ki=IC50 (1+Concentration of the ligands added/Kd (4.95 nM))
Turning to `CC(C)n1c2ccccc2c2ccc(C(=O)N=C(N)N)cc21` [Example 1, N-(diaminomethylene)-9-isopropyl-9H-carbazole-2-carboxamide], the inhibition constant (Ki) came to 0.69 nM. That is a sub-nanomolar value.

For `NC(N)=NC(=O)c1ccc2c(c1)[nH]c1ccccc12` [Example 2, N-(diaminomethylene)-9H-carbazole-2-carboxamide], the affinity corresponds to a Ki of 2.8 nM. Compound `NC(N)=NC(=O)c1cc(F)c2c3ccccc3n(C3CCOCC3)c2c1` [Example 11, N-(diaminomethylene)-4-fluoro-9-(tetrahydro-2H-pyran-4-yl)-9H-carbazole-2-carboxamide hydrochloride] registered a Ki of no more than 50 nM. In turn, `NC(N)=NC(=O)c1ccc2c3ccccc3n(C3CCC3)c2c1` [Example 22] gave a Ki of no more than 50 nM. The compound `NC(N)=NC(=O)c1ccc2c3ccccc3n(C3CCCCC3)c2c1` [Example 24] came in with an inhibition constant (Ki) of no more than 50 nM. With `CC(C)C(=O)n1c2ccccc2c2ccc(C(=O)N=C(N)N)cc21` [Example 27], the affinity, expressed as Ki, was 0.66 nM. Consider `CC(C)S(=O)(=O)n1c2ccccc2c2ccc(C(=O)N=C(N)N)cc21` [Example 28], for which the inhibitory constant (Ki) turned out to be 4.5 nM. Compared with the last compound, the Ki is about 6.8-fold higher. `NC(N)=NC(=O)c1ccc2c3ccccc3n(-c3ccccn3)c2c1` [Example 102] had a Ki of 5.3 nM. In turn, `NC(N)=NC(=O)c1ccc2c3ccc(F)cc3n(C3CCOCC3)c2c1` [Example 114] displayed an inhibitory constant (Ki) of no more than 50 nM. Turning to `NC(N)=NC(=O)c1ccc2c3c(Cl)cccc3n(C3CCOCC3)c2c1` [Example 115], the inhibition constant Ki is no more than 50 nM. `NC(N)=NC(=O)c1ccc2c3ccccc3n(Cc3ccc(F)s3)c2c1` [Example 116] registered a Ki of no more than 50 nM. For the compound `CN/C(N)=N/C(=O)c1ccc2c3ccccc3n(C3CCOCC3)c2c1` [Example 120], the Ki is 2.2 nM. On to `N/C(=N/C(=O)c1ccc2c3ccccc3n(C3CCOCC3)c2c1)NCCO` [Example 126], for which the Ki was no more than 50 nM. Turning to `NC(N)=NC(=O)c1ccc2c3c(F)ccc(F)c3n(C3CCOCC3)c2c1` [Example 140], the Ki is no more than 50 nM. With `Cc1cc(Cn2c3ccccc3c3ccc(C(=O)N=C(N)N)cc32)no1` [Example 141], the Ki is no more than 50 nM. `NC(N)=NC(=O)c1ccc2c3ccccc3n([C@H]3CC[C@@H](F)CC3)c2c1` [Example 143] returned an inhibition constant Ki of no more than 50 nM. As for `NC(N)=NC(=O)c1ccc2c3ccccc3n(C3CCOCC3)c2c1` [Example 144], the Ki is no more than 50 nM.

`Cc1cccc2c1c1c(F)cc(C(=O)N=C(N)N)cc1n2C1CCOCC1` [Example 145] showed an inhibitory constant (Ki) of no more than 50 nM.

With `CSc1cccc2c1c1ccc(C(=O)N=C(N)N)cc1n2C1CCOCC1` [Example 147], the inhibition constant (Ki) was no more than 50 nM. `CO[C@H]1CC[C@@H](n2c3ccccc3c3ccc(C(=O)N=C(N)N)cc32)CC1` [Example 148] had an inhibitory constant (Ki) of no more than 50 nM. As to `CC(C)N/C(N)=N\C(=O)c1ccc2c3ccccc3n(C3CCOCC3)c2c1` [Example 149], the Ki was no more than 50 nM. As for `CC(C)n1c2cc(C(=O)N=C(N)N)ccc2c2c(O)cccc21` [Example 152], the Ki was no more than 50 nM. The same measure, in the same setting: the same measure for `N/C(=N\C(=O)c1ccc2c3ccccc3n(C3CCOCC3)c2c1)NCc1ccccc1` [Example 159]: 1.6 nM; for `NC(N)=NC(=O)c1ccc2c3ccccc3n(C(CF)CF)c2c1` [Example 160]: no more than 50 nM; for `COCCCN/C(N)=N/C(=O)c1ccc2c3ccccc3n(C3CCOCC3)c2c1` [Example 162]: no more than 50 nM. `N/C(=N\C(=O)c1ccc2c3ccccc3n(C3CCOCC3)c2c1)NC1CC1` [Example 164] had a Ki of no more than 50 nM. `NC(N)=NC(=O)c1ccc2c3ccccc3n([C@@H]3CCNC3)c2c1` [Example 175] showed an inhibition constant Ki of no more than 50 nM. On to `Cc1ccsc1Cn1c2ccccc2c2ccc(C(=O)N=C(N)N)cc21` [Example 177], for which the Ki is no more than 50 nM. The same measure, in the same setting: for `N/C(=N\C(=O)c1ccc2c3ccccc3n(C3CCOCC3)c2c1)NCc1ccco1` [Example 179] the value was no more than 50 nM; for `N/C(=N\C(=O)c1ccc2c3ccccc3n(C3CCOCC3)c2c1)NCc1cccs1` [Example 180], no more than 50 nM; for `N/C(=N\C(=O)c1ccc2c3ccccc3n(C3CCOCC3)c2c1)Nc1ccccc1` [Example 181], no more than 50 nM.

`N/C(=N\C(=O)c1ccc2c3ccccc3n(C3CCOCC3)c2c1)NC1CCOCC1` [Example 182]: the inhibitory constant (Ki) was no more than 50 nM. On the same count and under the same terms, the same measure for `N/C(=N\C(=O)c1ccc2c3ccccc3n(C3CCOCC3)c2c1)NCC1COCCO1` (stereo not drawn) [Example 186]: no more than 50 nM; for `N/C(=N\C(=O)c1ccc2c3ccccc3n(C3CCOCC3)c2c1)NC[C@@H]1CCCO1` [Example 187]: no more than 50 nM; for `N/C(=N\C(=O)c1ccc2c3ccccc3n(C3CCOCC3)c2c1)NC[C@H]1CCCO1` [Example 188]: no more than 50 nM.

The compound `N#CCN1CCC(n2c3ccccc3c3ccc(C(=O)N=C(N)N)cc32)CC1` [Example 191] gave a Ki of no more than 50 nM.

As to `COc1ccc(CN/C(N)=N/C(=O)c2ccc3c4ccccc4n(C4CCOCC4)c3c2)cc1` [Example 193], the Ki is no more than 50 nM. On to `COc1ccccc1CN/C(N)=N/C(=O)c1ccc2c3ccccc3n(C3CCOCC3)c2c1` [Example 195], for which the inhibition constant (Ki) is no more than 50 nM. With `N/C(=N\C(=O)c1ccc2c3ccccc3n(C3CCOCC3)c2c1)NCCc1ccccc1` [Example 196], the Ki was no more than 50 nM. With `NC(N)=NC(=O)c1ccc2c3ccccc3n(C3CCN(c4ccccc4)CC3)c2c1` [Example 198], the Ki was no more than 50 nM. On to `N/C(=N\C(=O)c1ccc2c3ccccc3n(C3CCOCC3)c2c1)NCC1CCCCC1` [Example 204], for which the inhibitory constant (Ki) was no more than 50 nM.

Compound `N/C(=N\C(=O)c1ccc2c3ccccc3n(C3CCOCC3)c2c1)NCC1CCCC1` [Example 205] gave an inhibitory constant (Ki) of no more than 50 nM. With `N/C(=N\C(=O)c1ccc2c3ccccc3n(C3CCOCC3)c2c1)NCC1CCOCC1` [Example 206], the inhibition constant (Ki) was no more than 50 nM. Still for that read-out and setting: for `COCCN/C(N)=N/C(=O)c1ccc2c3ccccc3n(Cc3cccs3)c2c1` [Example 210] the value was no more than 50 nM; for `COc1cccc(OC)c1CNC(N)=NC(=O)c1ccc2c3ccccc3n(C3CCOCC3)c2c1` [Example 212], no more than 50 nM. Compound `NC(N)=NC(=O)C1CCc2c(n(-c3ccccc3)c3ccccc23)C1` (stereo not drawn) [Example 220] yielded a Ki of no more than 50 nM.

The next assay deals with MK-801-induced overactivity. The experiment in a line: MK-801-induced overactivity in mice, kinetic momentum by infrared sensor. In kind it is in vivo. To be noted: mouse, oral, dose 0.1 mg/kg; MK-801 0.3 mg/kg i.p. The procedure:
Evaluation of Various Drugs Relative to a Drug for Increasing the Kinetic Momentum of Mice (Methane Phetamine, MK-801) (Method for Measuring a Kinetic Momentum by Discharge of an Infrared Ray)
The effect of improving the positive symptoms and the negative symptoms of schizophrenia by the compound (I) was evaluated by measuring the kinetic momentum that had been […] with administration of the compound in a model causing the symptoms by methane phetamine (which is hereinafter simply referred to as MAP) and MK-801.
Species: Male ICR mouse/number of animals (number of animals per group): 8 to 12 animals per group
The animal was left in a laboratory for 1 hour or longer to be acclimated to the environment, and the animal was taken from the feeding cage, orally administered with a compound to be tested, and then returned to the feeding cage. After 30 minutes, it was put into a cage for measurement, and the kinetic momentum of just the compound to be tested was measured. Further, after 30 minutes, the animal was taken out, and intraperitoneally administered with a drug for increasing kinetic momentum (MAP; 1 mg/kg or MK-801; 0.3 mg/kg, all dissolved in physiological saline), and its kinetic momentum was measured for a certain time (60 minutes) using a device for measuring the kinetic momentum by means of an infrared ray sensor (CompACT AMS, Muromachi Kikai Co., Ltd.). Also, the test was carried out under non-fasting.
The 60 minutes of measurements was classified into three groups: a first half 30 minutes, a second half 30 minutes, and a total 60 minutes. For a normal mouse (a mouse administered with physiological saline) and a mouse administered with the drug for increasing kinetic momentum, a Student's T test was used for evaluation in each interval. For the group administered with the compound to be tested, a solvent (vehicle) group and a Dunnett's T test were carried out and evaluated. For the evaluation, in case where there was a significant (P<0.05) difference for the total 60 minutes, it was considered to be effective.
On to `NC(N)=NC(=O)c1ccc2c3ccccc3n(C3CCC3)c2c1` [Example 22], for which the “inhibition of MK-801-induced overactivity” value was “significantly inhibited”. With `NC(N)=NC(=O)c1ccc2c3ccccc3n(C3CCCCC3)c2c1` [Example 24], the “inhibition of MK-801-induced overactivity” value was “significantly inhibited”.
